The results in this text go back to PMC7806260, “A gustatory receptor tuned to the steroid plant hormone brassinolide in Plutella xylostella (Lepidoptera: Plutellidae)” (eLife, 2020).

For this experiment, the target named is T1, PxylGr34 (Plutella xylostella, UniProt A0ABQ7Q355).
T1 construct: gene JYU34_016516; no tag or co-receptor stated
T1 sequence (A0ABQ7Q355 1-418): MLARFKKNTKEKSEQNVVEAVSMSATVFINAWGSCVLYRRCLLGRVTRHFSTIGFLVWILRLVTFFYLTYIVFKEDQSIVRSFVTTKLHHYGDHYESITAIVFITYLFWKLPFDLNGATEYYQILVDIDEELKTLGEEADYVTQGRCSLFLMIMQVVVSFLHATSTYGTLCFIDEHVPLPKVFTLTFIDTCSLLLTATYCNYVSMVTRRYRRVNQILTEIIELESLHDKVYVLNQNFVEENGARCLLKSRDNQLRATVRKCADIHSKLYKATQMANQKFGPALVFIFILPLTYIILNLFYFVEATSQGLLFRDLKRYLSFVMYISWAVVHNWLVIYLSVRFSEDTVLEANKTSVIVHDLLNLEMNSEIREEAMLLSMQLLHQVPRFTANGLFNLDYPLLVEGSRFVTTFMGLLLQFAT
In words: two-electrode voltage clamp, Xenopus oocytes. It counts as cell-based. The note with it: inward current, agonist at 10^-4 M, pH 7.5, holding potential -80 mV. For orientation: In two-electrode clamp one electrode senses voltage and the other passes current.

Regarding `C=CCN=C=S` [Allyl isothiocyanate], the “two-electrode voltage clamp, Xenopus oocytes” value (“two-electrode voltage clamp” below) is “Oocytes expressing PxylGr34 showed weak responses to methyl jasmonate and allyl isothiocyanate”.

In the case of `CC(C)[C@H](C)[C@@H](O)[C@H](O)[C@@H](C)[C@H]1CC[C@H]2[C@@H]3COC(=O)[C@H]4C[C@H](O)[C@H](O)C[C@]4(C)[C@H]3CC[C@]12C` [Brassinolide], under “dose series recorded”, the “two-electrode voltage clamp” value is on record as “BL induced a strong response in the oocytes expressing PxylGr34”.

For `CC/C=C\C[C@H]1C(=O)CC[C@@H]1CC(=O)OC` [Methyl jasmonate], the “two-electrode voltage clamp” value is “Oocytes expressing PxylGr34 showed weak responses to methyl jasmonate and allyl isothiocyanate”.
